Measurements: patent US20230085307A1, “PYRIDAZINONE COMPOUND AND HERBICIDE” (NISSAN CHEMICAL CORPORATION, priority 2019, published 2023)

Assays:
blackgrass = experiment: Test Example 5: herbicidal effect by foliage application, plastic box (Table 20, symbol J); format: in vivo, blackgrass (Alopecurus myosuroides); details: foliage application, three weeks after application
Summary of the method: (§1)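 Post-emergence foliar test in sterilized diluvial soil. Compound applied as water-diluted emulsion at a predetermined rate to 14-day-old plants; evaluation at three weeks.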

late watergrass = experiment: Test Example 2: herbicidal activity, application during weed generation under submerged conditions (Table 17, symbol A); format: in vivo, late watergrass (Echinochloa oryzicola); details: application during weed generation, submerged conditions
Procedure: [Test Example 2] Herbicidal Activity Test by Application during Weed Generation under Submerged Conditions After alluvial soil was placed into 1/10000 are of Wagner pot, water was poured and mixed to form a submerged condition having a water depth of 4 cm. Seeds of late watergrass, Japanese bulrush, and oval-leafed pondweed were sowed in a mixed manner in the aforementioned pot, and the pot was placed in a greenhouse at 25° C. to 30° C. for growth of the plants. When late watergrass, Japanese bulrush, and oval-leafed pondweed were grown to one leaf stage to two leaf stage, the emulsion agent of the compound of the present invention prepared according to Formulation Example 2 was diluted with water so as to achieve a predetermined herbicide amount, and the diluted emulsion agent was applied to the surface of the water. Three weeks after the herbicide application, the effect of the herbicide on each plant was evaluated according to the criteria of Test Example 1.

green foxtail = experiment: Test Example 5: herbicidal effect by foliage application, plastic box (Table 20, symbol G); format: in vivo, green foxtail (Setaria viridis); details: foliage application, three weeks after application
Summary of the method: as §1

barnyard grass [1] = experiment: Test Example 3: herbicidal effect by foliage application, Wagner pot (Table 18, symbol H); format: in vivo, barnyard grass (Echinochloa crus-galli)
Summary of the method: (§2)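 Plants were sown in alluvial soil held under 0.1–0.5 cm standing water and grown 14 days in a greenhouse at 25–30 °C. An emulsifiable formulation, water-diluted to the set dose, was then sprayed onto the foliage, and effects were scored three weeks later using previously defined criteria.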

southern crabgrass = experiment: Test Example 5: herbicidal effect by foliage application, plastic box (Table 20, symbol F); format: in vivo, southern crabgrass (Digitaria ciliaris); details: foliage application, three weeks after application
Summary of the method: as §1

Japanese bulrush = experiment: Test Example 2: herbicidal activity, application during weed generation under submerged conditions (Table 17, symbol B); format: in vivo, Japanese bulrush (Schoenoplectus juncoides); details: application during weed generation, submerged conditions
Summary of the method: (§3)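 Alluvial soil in Wagner pots was flooded to 4 cm depth and sown with the three weeds together; pots were kept in a greenhouse at 25° C. to 30° C. At the one to two leaf stage, an emulsion formulation diluted in water to a set rate went onto the water surface; scored three weeks later.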

velvetleaf = experiment: Test Example 5: herbicidal effect by foliage application, plastic box (Table 20, symbol M); format: in vivo, velvetleaf (Abutilon theophrasti); details: foliage application, three weeks after application
Summary of the method: as §1

windgrass = experiment: Test Example 5: herbicidal effect by foliage application, plastic box (Table 20, symbol L); format: in vivo, windgrass (Apera spica-venti); details: foliage application, three weeks after application
Summary of the method: as §1

redroot pigweed = experiment: Test Example 5: herbicidal effect by foliage application, plastic box (Table 20, symbol N); format: in vivo, redroot pigweed (Amaranthus retroflexus); details: foliage application, three weeks after application
Summary of the method: as §1

Italian ryegrass = experiment: Test Example 5: herbicidal effect by foliage application, plastic box (Table 20, symbol K); format: in vivo, Italian ryegrass (Lolium multiflorum); details: foliage application, three weeks after application
Summary of the method: as §1

wild oat = experiment: Test Example 5: herbicidal effect by foliage application, plastic box (Table 20, symbol I); format: in vivo, wild oat (Avena fatua); details: foliage application, three weeks after application
Summary of the method: as §1

persian speedwell = experiment: Test Example 5: herbicidal effect by foliage application, plastic box (Table 20, symbol R); format: in vivo, Persian speedwell (Veronica persica); details: foliage application, three weeks after application
Summary of the method: as §1

oval-leafed pondweed = experiment: Test Example 2: herbicidal activity, application during weed generation under submerged conditions (Table 17, symbol C); format: in vivo, oval-leafed pondweed (Monochoria vaginalis); details: application during weed generation, submerged conditions
Summary of the method: as §3

chickweed = experiment: Test Example 5: herbicidal effect by foliage application, plastic box (Table 20, symbol P); format: in vivo, common chickweed (Stellaria media); details: foliage application, three weeks after application
Summary of the method: as §1

lambsquarters = experiment: Test Example 5: herbicidal effect by foliage application, plastic box (Table 20, symbol O); format: in vivo, lambsquarters (Chenopodium album); details: foliage application, three weeks after application
Summary of the method: as §1

barnyard grass [2] = experiment: Test Example 5: herbicidal effect by foliage application, plastic box (Table 20, symbol H); format: in vivo, barnyard grass (Echinochloa crus-galli); details: foliage application, three weeks after application
Summary of the method: as §1

Chinese sprangletop = experiment: Test Example 3: herbicidal effect by foliage application, Wagner pot (Table 18, symbol D); format: in vivo, chinese sprangletop (Leptochloa chinensis)
Summary of the method: as §2

rice flat sedge = experiment: Test Example 3: herbicidal effect by foliage application, Wagner pot (Table 18, symbol E); format: in vivo, rice flat sedge (Cyperus iria)
Summary of the method: as §2

[3] = amount of applied herbicide 320 g/ha
[4] = amount of applied herbicide 285 g/ha

CCCC(=O)Oc1c(C)nn(C)c(=O)c1-c1c(-c2ccc(Cl)cc2)sc2cc(F)ccc12 [3-016]
J: blackgrass, herbicidal effect grade (blackgrass; 320 g/ha): 0 (Herbicidal rate of 5% or less (almost no effect)) | herbicidal effect rating, A: late watergrass (late watergrass; AAH 320 g/ha): 3 (Herbicidal rate of 40% or more and less than 70%) | G: green foxtail, herbicidal effect grade (green foxtail; 320 g/ha): 0 (Herbicidal rate of 5% or less (almost no effect)) | herbicidal effect on H: barnyard grass (barnyard grass [1]; [3]): 3 (Herbicidal rate of 40% or more and less than 70%) | F: southern crabgrass, herbicidal effect grade (southern crabgrass; 320 g/ha): 0 (Herbicidal rate of 5% or less (almost no effect)) | herbicidal effect rating, B: Japanese bulrush (Japanese bulrush; AAH 320 g/ha): 0 (Herbicidal rate of 5% or less (almost no effect)) | M: velvetleaf, herbicidal effect grade (velvetleaf; 320 g/ha): 3 (Herbicidal rate of 40% or more and less than 70%) | L: windgrass, herbicidal effect grade (windgrass; 320 g/ha): 5 (Herbicidal rate of 90% or more (almost completely withered)) | N: redroot pigweed, herbicidal effect grade (redroot pigweed; 320 g/ha): 1 (Herbicidal rate of 5% or more and less than 20%) | K: Italian ryegrass, herbicidal effect grade (Italian ryegrass; 320 g/ha): 0 (Herbicidal rate of 5% or less (almost no effect)) | I: wild oat, herbicidal effect grade (wild oat; 320 g/ha): 1 (Herbicidal rate of 5% or more and less than 20%) | R: persian speedwell, herbicidal effect grade (persian speedwell; 320 g/ha): 4 (Herbicidal rate of 70% or more and less than 90%) | herbicidal effect rating, C: oval-leafed pondweed (oval-leafed pondweed; AAH 320 g/ha): 0 (Herbicidal rate of 5% or less (almost no effect)) | P: chickweed, herbicidal effect grade (chickweed; 320 g/ha): 3 (Herbicidal rate of 40% or more and less than 70%) | O: lambsquarters, herbicidal effect grade (lambsquarters; 320 g/ha): 3 (Herbicidal rate of 40% or more and less than 70%) | H: barnyard grass, herbicidal effect grade (barnyard grass [2]; 320 g/ha): 0 (Herbicidal rate of 5% or less (almost no effect)) | herbicidal effect on D: Chinese sprangletop (Chinese sprangletop; [3]): 4 (Herbicidal rate of 70% or more and less than 90%) | herbicidal effect on E: rice flat sedge (rice flat sedge; [3]): 4 (Herbicidal rate of 70% or more and less than 90%)

CCOC(=O)OC(C)Oc1c(C)nn(C)c(=O)c1-c1c(-c2ccccc2OC)sc2cc(F)ccc12 (stereo not drawn) [3-029]
J: blackgrass, herbicidal effect grade (blackgrass; 285 g/ha): 4 (Herbicidal rate of 70% or more and less than 90%) | herbicidal effect rating, A: late watergrass (late watergrass; AAH 285 g/ha): 0 (Herbicidal rate of 5% or less (almost no effect)) | G: green foxtail, herbicidal effect grade (green foxtail; 285 g/ha): 5 (Herbicidal rate of 90% or more (almost completely withered)) | herbicidal effect on H: barnyard grass (barnyard grass [1]; [4]): 5 (Herbicidal rate of 90% or more (almost completely withered)) | F: southern crabgrass, herbicidal effect grade (southern crabgrass; 285 g/ha): 3 (Herbicidal rate of 40% or more and less than 70%) | herbicidal effect rating, B: Japanese bulrush (Japanese bulrush; AAH 285 g/ha): 3 (Herbicidal rate of 40% or more and less than 70%) | M: velvetleaf, herbicidal effect grade (velvetleaf; 285 g/ha): 5 (Herbicidal rate of 90% or more (almost completely withered)) | L: windgrass, herbicidal effect grade (windgrass; 285 g/ha): 4 (Herbicidal rate of 70% or more and less than 90%) | N: redroot pigweed, herbicidal effect grade (redroot pigweed; 285 g/ha): 5 (Herbicidal rate of 90% or more (almost completely withered)) | K: Italian ryegrass, herbicidal effect grade (Italian ryegrass; 285 g/ha): 3 (Herbicidal rate of 40% or more and less than 70%) | I: wild oat, herbicidal effect grade (wild oat; 285 g/ha): 1 (Herbicidal rate of 5% or more and less than 20%) | R: persian speedwell, herbicidal effect grade (persian speedwell; 285 g/ha): 0 (Herbicidal rate of 5% or less (almost no effect)) | herbicidal effect rating, C: oval-leafed pondweed (oval-leafed pondweed; AAH 285 g/ha): 1 (Herbicidal rate of 5% or more and less than 20%) | P: chickweed, herbicidal effect grade (chickweed; 285 g/ha): 4 (Herbicidal rate of 70% or more and less than 90%) | O: lambsquarters, herbicidal effect grade (lambsquarters; 285 g/ha): 3 (Herbicidal rate of 40% or more and less than 70%) | H: barnyard grass, herbicidal effect grade (barnyard grass [2]; 285 g/ha): 4 (Herbicidal rate of 70% or more and less than 90%) | herbicidal effect on D: Chinese sprangletop (Chinese sprangletop; [4]): 3 (Herbicidal rate of 40% or more and less than 70%) | herbicidal effect on E: rice flat sedge (rice flat sedge; [4]): 5 (Herbicidal rate of 90% or more (almost completely withered))
